# System: jck mice
# Test: jck mouse model of polycystic kidney disease, 0.225% Compound A in feed, 26-64 days of age
# Format: in vivo
# Details: for K/BW ratio (%) / Body weight / BUN / Cystic volume (% BW): treated, 26-64 days of age; for K/BW ratio (%) / Body weight: 0.225% in feed ad libitum; for Body weight: at sacrifice; for BUN / Cystic volume (% BW): 0.225% in feed; for Cystic volume (% BW): percentage cystic area multiplied by kidney/body weight ratio
# Description: jck mice was administered Compound A ad libitum in feed (0.225% Compound A mixed with a standard diet chow in powdered format) from 26-64 days of age. Control jck mice were fed a control powdered diet from 26-64 days of age. At 63 days of age, animals were transferred to metabolic cages for 24 hour urine collection. At 64 days of age, animals were sacrificed by CO2 administration. Blood was collected by heart puncture for serum isolation. Kidneys were isolated and bisected; half of each kidney was fixed in 4% paraformaldehyde in PBS overnight for paraffin embedding and H&E staining.
# Total body weight and kidney weight were determined at sacrifice.
# Cyst volume was measured by quantitating the percentage of cystic area in histological sections of kidneys from the treated and control animals, multiplied by the kidney/body weight ratio.
# Blood urea nitrogen (BUN) levels were determined in serum samples derived from animals at sacrifice.
# [1] = treated vs control jck mice, p-value<0.05, two-tailed t-test
smiles,measurement,setting,value
"CCCCCCCCC(=O)N[C@H](CN1CCCC1)[C@H](O)c1ccc2c(c1)OCCO2 [Compound A, N-((1R,2R)-1-(2,3-dihydrobenzo[1,4|]dioxin-6-yl)-1-hydroxy-3-(pyrrolidin-1-yl)propan-2-yl)nonanamide]",K/BW ratio (%),female jck mice,3.57 ± 0.58 %
same,Body weight,female jck mice,15.93 ± 1.65 g
same,BUN,"female jck mice, serum at sacrifice",34.67 ± 9.41 mg/dL
same,Cystic volume (% BW),female jck mice,0.58 ± 0.29 % BW
same,"cystic disease, as measured by kidney/body weight ratio and cyst volume","in feed at 0.225%, both males and females",statistically significant reduction
same,PKD in a mouse model,jck mice,Effectively Inhibited PKD
same,K/BW ratio (%),male jck mice,4.46 ± 0.46 %
same,Body weight,male jck mice,18.43 ± 1.82 g
same,BUN,"male jck mice, serum at sacrifice",39.25 ± 10.70 mg/dL
same,Cystic volume (% BW),male jck mice,0.88 ± 0.23 % BW
same,renal function,"treated animals relative to controls, in feed at 0.225%, both males and females",improved renal function
same,cyst volume,[1],significant decrease
same,kidney weight/body weight ratio,[1],significant difference
same,total body weight,[1],statistically significant decrease
same,BUN levels,"treated vs untreated control jck mice, serum at sacrifice, p-value<0.05, two-tailed t-test",significant reduction
